Source: the CheMixHub viscosity set

Test: xn = mol fraction of the nth substance listed

COCCOCCOC + CCCCCC
viscosity [mPa·s], 101.33 kPa
Details | x1 = 0.1017 | x1 = 0.2006 | x1 = 0.3006 | x1 = 0.3974 | x1 = 0.4983 | x1 = 0.4984 | x1 = 0.5986 | x1 = 0.6954 | x1 = 0.8011 | x1 = 0.8957
298.15 K | 0.326 | 0.362 | 0.407 | 0.455 | – | 0.52 | 0.584 | 0.662 | 0.761 | 0.868
303.15 K | 0.31 | 0.344 | 0.385 | 0.43 | – | 0.49 | 0.548 | 0.62 | 0.71 | 0.806
308.15 K | 0.294 | 0.324 | 0.362 | 0.404 | 0.461 | – | 0.512 | 0.576 | 0.657 | 0.75
313.15 K | 0.28 | 0.308 | 0.345 | 0.383 | 0.434 | – | 0.482 | 0.541 | 0.616 | 0.699
318.15 K | 0.268 | 0.285 | 0.326 | 0.363 | 0.41 | – | 0.457 | 0.511 | 0.579 | 0.657

ClC(Cl)C(Cl)Cl + CCCCCC
303.15 K, 101 kPa
Details | viscosity [mPa·s]
x1 = 0.115 | 0.316
x1 = 0.2303 | 0.363
x1 = 0.2991 | 0.411
x1 = 0.4277 | 0.516
x1 = 0.5521 | 0.633
x1 = 0.6234 | 0.71
x1 = 0.7182 | 0.83
x1 = 0.8039 | 0.966
x1 = 0.8856 | 1.133
x1 = 0.9344 | 1.256

COCCOCCOC + CCCCCCC
viscosity [mPa·s], 101.33 kPa
Details | x1 = 0.0978 | x1 = 0.197 | x1 = 0.2958 | x1 = 0.3834 | x1 = 0.4946 | x1 = 0.594 | x1 = 0.6956 | x1 = 0.7955 | x1 = 0.8992
298.15 K | 0.407 | 0.436 | 0.471 | 0.508 | 0.562 | 0.619 | 0.689 | 0.768 | 0.871
303.15 K | 0.386 | 0.412 | 0.444 | 0.478 | 0.527 | 0.58 | 0.643 | 0.714 | 0.807
308.15 K | 0.367 | 0.39 | 0.421 | 0.451 | 0.5 | 0.545 | 0.602 | 0.668 | 0.751
313.15 K | 0.351 | 0.371 | 0.398 | 0.426 | 0.468 | 0.513 | 0.566 | 0.627 | 0.7
318.15 K | 0.333 | 0.354 | 0.378 | 0.404 | 0.443 | 0.484 | 0.532 | 0.587 | 0.656

ClC(Cl)C(Cl)Cl + CCCCCCC
303.15 K, 101 kPa
Details | viscosity [mPa·s]
x1 = 0.1397 | 0.398
x1 = 0.2476 | 0.472
x1 = 0.3744 | 0.564
x1 = 0.4722 | 0.643
x1 = 0.5731 | 0.727
x1 = 0.6565 | 0.8
x1 = 0.7428 | 0.896
x1 = 0.8309 | 1.023
x1 = 0.9008 | 1.165
x1 = 0.9406 | 1.267
